# From patent publication US9163021B2, “Pyrrolo[3,2-c]pyridine tropomyosin-related kinase inhibitors” (Pfizer Limited, priority 2012, dated 2015)
# Target: TRKA (Homo sapiens (Human), UniProt P04629)
# Experiment: Isolated TRK enzyme assay (HTRF KinEASE-TK), PV3144 TrkA enzyme assay
# Type: biochemical
# Conditions: arithmetic mean where more than one reading
# Experimental: Isolated TRK Enzyme assays use the HTRF KinEASE-TK kit (Cisbio Cat#62TK0PEJ) with recombinant His-tagged cytoplasmic domains of each TRK receptor sourced from Invitrogen (see table below). This activity-assay measures the phosphorylation of tyrosine residues within a substrate from the HTRF kit which has been validated by Cisbio for a variety of tyrosine kinases including the TRK receptors.
# 0.5 mM stock solutions of test compounds are prepared and serially diluted in 100% DMSO. A standard curve using the compound of Example 135 disclosed in WO2005/116035 of 150 uM is also prepared on each test plate. High percentage effect (HPE) is defined by 150 uM (using the compound of Example 135 as disclosed in WO2005/116035) and 0% effect (ZPE) is defined by 100% DMSO. Greiner low volume black plates containing 0.2 ul of serially diluted compound, standard and HPE/ZPE are created using the Bravo nanoliter dispenser.
# 1× enzyme buffer is prepared from 5× Enzymatic Buffer from the Cisbio KinEASE TK kit using MilliQ water. The buffer is then supplemented with 10 mM MgCI and 2 mM DTT (both from Sigma). In the case of TRKB, the buffer is also supplemented with 125 nM Supplement Enzymatic Buffer (SEB) from the Cisbio kit.
# 2× FAC of enzyme and 2× FAC ATP diluted in 1× complete enzyme buffer is incubated at room temperature for 20 minutes to preactivate the enzyme. Following this preactivation step, 5 ul/well of enzyme+ATP mix is added using a Multidrop Micro to the assay plate, spotted with 0.2 ul 100% DMSO compound. This is left for 20 mins at room temperature before adding 5 ul of 2 uM TK-substrate-Biotin (from the Cisbio kit) diluted in 1× enzyme buffer (1 uM FAC) using the Multidrop Micro. The reaction is incubated at room temperature for the optimized assay reaction time (see table). The reaction is stopped by adding 10 ul/well HTRF Detection Buffer containing 0.25 uM Streptavidin-XL665 (0.125 uM FAC) and 1:200 TK Antibody-Cryptate using a Multidrop.
# After the Detection Reagent addition, plates are covered and incubated at room temperature for 60 minutes. HTRF signal is read using an Envision reader, measured as a ratio of emissions at two different wavelengths, 620 nm and 665 nm. […] Test compound data are expressed as percentage inhibition defined by HPE and ZPE values for each plate. Percentage inhibition in the presence of test compound is plotted against compound concentration on a log scale to determine an IC50 from the resultant sigmoid curve.
# Where more than one reading was taken, the arithmetic mean is presented.
# Chain of TRKA (P04629 441-796): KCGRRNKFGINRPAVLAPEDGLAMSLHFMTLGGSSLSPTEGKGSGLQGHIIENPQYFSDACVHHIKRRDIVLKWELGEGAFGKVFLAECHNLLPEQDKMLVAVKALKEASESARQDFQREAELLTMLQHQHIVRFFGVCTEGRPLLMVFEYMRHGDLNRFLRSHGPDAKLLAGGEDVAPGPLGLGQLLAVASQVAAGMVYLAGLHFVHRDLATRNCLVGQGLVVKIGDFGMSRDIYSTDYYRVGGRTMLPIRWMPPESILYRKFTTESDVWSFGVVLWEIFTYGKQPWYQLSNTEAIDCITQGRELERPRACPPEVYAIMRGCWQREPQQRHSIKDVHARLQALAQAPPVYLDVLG
row,SMILES,IC50 [µM]
1,"CC(C)n1cc(C(=O)c2ccnc(NC(=O)Cc3cnccn3)c2)c2cnccc21 [Example 110, N-(4-{[1-(propan-2-yl)-1H-pyrrolo[3,2-c]pyridin-3-yl]carbonyl}pyridin-2-yl)-2-(pyrazin-2-yl)acetamide]",3.33
2,"CC(CO)n1cc(C(=O)c2cncc(NC(=O)Cn3ccc(C4CC4)n3)c2)c2cncc(F)c21 (single isomer, unassigned) [Example 215, 2-(3-cyclopropyl-1H-pyrazol-1-yl)-N-(5-{[7-fluoro-1-(1-hydroxypropan-2-yl)-1H-pyrrolo[3,2-c]pyridin-3-yl]carbonyl}pyridin-3-yl)acetamide]",0.062
3,"CC(CO)n1cc(C(=O)c2cncc(NC(=O)Cc3cccc(C(F)(F)F)c3)c2)c2cncc(F)c21 (single isomer, unassigned) [Example 226, N-(5-{[7-fluoro-1-(1-hydroxypropan-2-yl)-1H-pyrrolo[3,2-c]pyridin-3-yl]carbonyl}pyridin-3-yl)-2-[3-(trifluoromethyl)phenyl]acetamide]",0.0113
4,"CC(C)n1cc(C(=O)c2ccnc(NC(=O)Cc3nc(C4CC4)oc3C3CC3)c2)c2cnccc21 [Example 79, 2-(2,5-dicyclopropyl-1,3-oxazol-4-yl)-N-(4-{[1-(propan-2-yl)-1H-pyrrolo[3,2-c]pyridin-3-yl]carbonyl}pyridin-2-yl)acetamide]",0.0261
5,"CC(C)n1cc(C(=O)c2ccnc(NC(=O)c3cccc(OC(F)(F)F)c3)c2)c2cnccc21 [Example 173, N-(4-{[1-(propan-2-yl)-1H-pyrrolo[3,2-c]pyridin-3-yl]carbonyl}pyridin-2-yl)-3-(trifluoromethoxy)-benzamide]",0.00385
6,"CC(CO)n1cc(C(=O)c2cncc(NC(=O)Cn3cc(C(F)(F)F)nn3)c2)c2cnccc21 (single isomer, unassigned) [Example 69, N-(5-{[1-(1-hydroxypropan-2-yl)-1H-pyrrolo[3,2-c]pyridin-3-yl]carbonyl}pyridin-3-yl)-2-[4-(trifluoromethyl)-1H-1,2,3-triazol-1-yl]acetamide]",0.0776
7,"CC(CO)n1cc(C(=O)c2cncc(NC(=O)Cc3ccc(Cl)cn3)c2)c2cncc(F)c21 (single isomer, unassigned) [Example 225, 2-(5-chloropyridin-2-yl)-N-(5-{[7-fluoro-1-(1-hydroxypropan-2-yl)-1H-pyrrolo[3,2-c]pyridin-3-yl]carbonyl}pyridin-3-yl)acetamide]",0.0463
8,"CC(CO)n1cc(C(=O)c2cncc(NC(=O)Cc3ccc(C#N)cc3)c2)c2cncc(F)c21 (single isomer, unassigned) [Example 213, 2-(4-cyanophenyl)-N-(5-{[7-fluoro-1-(1-hydroxypropan-2-yl)-1H-pyrrolo[3,2-c]pyridin-3-yl]carbonyl}pyridin-3-yl)acetamide]",0.252
9,"CC(CO)n1cc(C(=O)c2cncc(NC(=O)Cn3ccc(C(F)(F)F)n3)c2)c2cncc(F)c21 (single isomer, unassigned) [Example 210, N-(5-{[7-fluoro-1-(1-hydroxypropan-2-yl)-1H-pyrrolo[3,2-c]pyridin-3-yl]carbonyl}pyridin-3-yl)-2-[3-(trifluoromethyl)-1H-pyrazol-1-yl]acetamide]",0.0456
10,"CC(C)n1cc(C(=O)c2cncc(NC(=O)Cc3ccc(C#N)c(C(F)(F)F)c3)c2)c2cnccc21 [Example 37, 2-[4-cyano-3-(trifluoromethyl)phenyl]-N-(5-{[1-(propan-2-yl)-1H-pyrrolo[3,2-c]pyridin-3-yl]carbonyl}pyridin-3-yl)acetamide]",0.0517
11,"Cc1cc(C(F)(F)F)nn1CC(=O)Nc1cc(C(=O)c2cn(C(C)C)c3ccncc23)ccn1 [Example 104, 2-[5-methyl-3-(trifluoromethyl)-1H-pyrazol-1-yl]-N-(4-{[1-(propan-2-yl)-1H-pyrrolo[3,2-c]pyridin-3-yl]carbonyl}pyridin-2-yl)acetamide]",0.0138
12,"Cc1nccn1CC(=O)Nc1cncc(C(=O)c2cn(C(C)C)c3ccncc23)c1 [Example 118, 2-(2-methyl-1H-imidazol-1-yl)-N-(5-{[1-(propan-2-yl)-1H-pyrrolo[3,2-c]pyridin-3-yl]carbonyl}pyridin-3-yl)acetamide]",9.15
13,"CC(C)(CO)n1cc(C(=O)c2cncc(NC(=O)Cn3cc(C(F)(F)F)nn3)c2)c2cncc(F)c21 [Example 94, N-(5-{[7-fluoro-1-(1-hydroxy-2-methylpropan-2-yl)-1H-pyrrolo[3,2-c]pyridin-3-yl]carbonyl}pyridin-3-yl)-2-[4-(trifluoromethyl)-1H-1,2,3-triazol-1-yl]acetamide]",0.02
14,"COc1ccc(CC(=O)Nc2cc(C(=O)c3cn(C(C)C)c4ccncc34)ccn2)cc1 [Example 101, 2-(4-methoxyphenyl)-N-(4-{[1-(propan-2-yl)-1H-pyrrolo[3,2-c]pyridin-3-yl]carbonyl}pyridin-2-yl)acetamide]",0.0517
15,"CC(CO)n1cc(C(=O)c2cncc(NC(=O)Cc3ccc(C(F)(F)F)cc3)c2)c2cncc(F)c21 (single isomer, unassigned) [Example 222, N-(5-{[7-fluoro-1-(1-hydroxypropan-2-yl)-1H-pyrrolo[3,2-c]pyridin-3-yl]carbonyl}pyridin-3-yl)-2-[4-(trifluoromethyl)phenyl]acetamide]",0.0164

# Continued by falling IC50, values first:
row,IC50 [µM],SMILES
1,2.15,"Cc1cc(C)n(CC(=O)Nc2cc(C(=O)c3cn(CCO)c4ccncc34)ccn2)n1 [Example 152, 2-(3,5-dimethyl-1H-pyrazol-1-yl)-N-(4-{[1-(2-hydroxyethyl)-1H-pyrrolo[3,2-c]pyridin-3-yl]carbonyl}pyridin-2-yl)acetamide]"
2,0.955,"CC(C)n1cc(C(=O)c2ccnc(NC(=O)Cn3cccn3)c2)c2cnccc21 [Example 166, N-(4-{[1-(propan-2-yl)-1H-pyrrolo[3,2-c]pyridin-3-yl]carbonyl}pyridin-2-yl)-2-(1H-pyrazol-1-yl)acetamide]"
3,0.64,"COc1cccc(CC(=O)Nc2cc(C(=O)c3cn(C(C)C)c4ccncc34)ccn2)c1 [Example 108, 2-(3-methoxyphenyl)-N-(4-{[1-(propan-2-yl)-1H-pyrrolo[3,2-c]pyridin-3-yl]carbonyl}pyridin-2-yl)acetamide]"
4,0.418,"CC(CO)n1cc(C(=O)c2cncc(NC(=O)Cc3ccc(C#N)cc3)c2)c2cncc(F)c21 (single isomer, unassigned) [Example 217, 2-(4-cyanophenyl)-N-(5-{[7-fluoro-1-(1-hydroxypropan-2-yl)-1H-pyrrolo[3,2-c]pyridin-3-yl]carbonyl}pyridin-3-yl)acetamide]"
5,0.408,"CC(C)(O)Cc1cccc(CC(=O)Nc2cc(C(=O)c3cn(CCO)c4ccncc34)ccn2)c1 [Example 151, N-(4-{[1-(2-hydroxyethyl)-1H-pyrrolo[3,2-c]pyridin-3-yl]carbonyl}pyridin-2-yl)-2-[3-(2-hydroxy-2-methylpropyl)phenyl]acetamide]"
6,0.342,"O=C(Cn1cc(C(F)(F)F)nn1)Nc1cc(C(=O)c2cn(CCO)c3ccncc23)ccn1 [Example 156, N-(4-{[1-(2-hydroxyethyl)-1H-pyrrolo[3,2-c]pyridin-3-yl]carbonyl}pyridin-2-yl)-2-[4-(trifluoromethyl)-1H-1,2,3-triazol-1-yl]acetamide]"
7,0.18,"CC(C)n1cc(C(=O)c2cncc(NC(=O)Cc3ccc(C#N)cc3)c2)c2cnccc21 [Example 49, 2-(4-cyanophenyl)-N-(5-{[1-(propan-2-yl)-1H-pyrrolo[3,2-c]pyridin-3-yl]carbonyl}pyridin-3-yl)acetamide]"
8,0.0738,"CC(C)n1cc(C(=O)c2cc(NC(=O)Cc3ccc(Cl)cn3)ccn2)c2cnccc21 [Example 55, 2-(5-chloropyridin-2-yl)-N-(2-{[1-(propan-2-yl)-1H-pyrrolo[3,2-c]pyridin-3-yl]carbonyl}pyridin-4-yl)acetamide]"
9,0.0385,"CC(C)(CO)n1cc(C(=O)c2cncc(NC(=O)Cc3ccc(Cl)cn3)c2)c2cnccc21 [Example 8, 2-(5-Chloro-pyridin-2-yl)-N-{5-[1-(2-hydroxy-1,1-dimethyl-ethyl)-1H-pyrrolo[3,2-c]pyridine-3-carbonyl]-pyridin-3-yl}-acetamide]"
10,0.0299,"O=C(Nc1cc(C(=O)c2cn(CCO)c3ccncc23)ccn1)c1cccc(OC(F)(F)F)c1 [Example 142, N-(4-{[1-(2-hydroxyethyl)-1H-pyrrolo[3,2-c]pyridin-3-yl]carbonyl}pyridin-2-yl)-3-(trifluoromethoxy)benzamide]"
11,0.0222,"O=C(Cc1ccc(Cl)c(Cl)c1)Nc1cc(C(=O)c2cn(CCO)c3ccncc23)ccn1 [Example 144, 2-(3,4-dichlorophenyl)-N-(4-{[1-(2-hydroxyethyl)-1H-pyrrolo[3,2-c]pyridin-3-yl]carbonyl}pyridin-2-yl)]"
